Laboratory results reported in patent publication US20240041042A1, “1-(PYRIDYL)-5-AZINYLPYRAZOLE DERIVATIVES, AND THEIR USE FOR CONTROL OF UNDESIRED PLANT GROWTH” (Bayer Aktiengesellschaft, priority 2020, published 2024).

Columns and labels:
Assay type in all cases: in vivo
[1] = system: Matricaria inodora (MATIN); experiment: Post-emergence herbicidal action against MATIN
Procedure, shortened: (§1)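 Doses of 320 g/ha or lower, suffixes a, b and c marking different dosages, were applied post-emergence at the one-leaf stage in 600 l/ha water with 0.5% additive. Damage was assessed visually after about 3 weeks in the greenhouse.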

[2] = system: Pharbitis purpurea (PHBPU); experiment: Post-emergence herbicidal action against PHBPU
Procedure, shortened: as §1

[3] = system: Polygonum convolvulus (POLCO); experiment: Post-emergence herbicidal action against POLCO
Procedure, shortened: as §1

[4] = system: Echinochloa crus-galli (ECHCG); experiment: Post-emergence herbicidal action against ECHCG
Procedure, shortened: as §1

[5] = system: Verconica persica (VERPE); experiment: Post-emergence herbicidal action against VERPE
Procedure, shortened: as §1

[6] = system: Viola tricolor (VIOTR); experiment: Post-emergence herbicidal action against VIOTR
Procedure, shortened: as §1

[7] = system: Abutilon theophrasti (ABUTH); experiment: Post-emergence herbicidal action against ABUTH; conditions: visual rating about 3 weeks after treatment vs untreated controls (100% = plants have died, 0% = like control plants)
Procedure, shortened: as §1

[8] = system: Setaria viridis (SETVI); experiment: Post-emergence herbicidal action against SETVI
Procedure, shortened: as §1

[9] = system: Lolium rigidum (LOLRI); experiment: Post-emergence herbicidal action against LOLRI
Procedure, shortened: as §1

[10] = system: Avena fatua (AVEFA); experiment: Post-emergence herbicidal action against AVEFA; conditions: 320 g/ha, visual rating about 3 weeks after treatment
Procedure, shortened: as §1

[11] = system: Amaranthus retroflexus (AMARE); experiment: Post-emergence herbicidal action against AMARE
Procedure, shortened: as §1

[12] = system: Digitaria sanguinalis (DIGSA); experiment: Post-emergence herbicidal action against DIGSA; conditions: visual rating about 3 weeks after treatment
Procedure, shortened: as §1

[13] = system: Oryza sativa (ORYSA); conditions: crop plant compatibility, 20 g/ha, effect vs untreated controls
Procedure, shortened: (§2)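 Effects were read visually as % versus untreated controls (0% = no effect, 100% = death) about 3 weeks post-treatment. Application was a post-emergence spray at the one-leaf stage of WP/EC formulations with 0.5% additive at 600 l/ha. Different dosages are denoted a, b and c.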

[14] = system: Triticum aestivum (TRZAS); conditions: crop plant compatibility, 20 g/ha, effect vs untreated controls
Procedure, shortened: as §2

[15] = system: Alopecurus myosuroides (ALOMY); experiment: Post-emergence herbicidal action against ALOMY; conditions: visual rating about 3 weeks after treatment vs untreated controls (100% = plants have died, 0% = like control plants)
Procedure, shortened: as §1

[16] = system: Echinochloa crus-galli (ECHCG); experiment: Pre-emergence herbicidal action against ECHCG; conditions: dosage 320 g/ha
Procedure, shortened: (§3)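 Herbicide applied to soil before seedling emergence, at 600 l/ha spray volume with 0.5% additive and rates up to 320 g/ha. Evaluation: visual percentage effect, about 3 weeks later, greenhouse-grown pots compared with untreated ones.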

[17] = system: Lolium rigidum (LOLRI); experiment: Pre-emergence herbicidal action against LOLRI; conditions: dosage 320 g/ha
Procedure, shortened: as §3

[18] = system: Matricaria inodora (MATIN); experiment: Pre-emergence herbicidal action against MATIN; conditions: dosage 320 g/ha
Procedure, shortened: as §3

[19] = system: Verconica persica (VERPE); experiment: Pre-emergence herbicidal action against VERPE; conditions: dosage 320 g/ha
Procedure, shortened: as §3

[20] = system: Zea mays (ZEAMX); conditions: pre-emergence, 80 g/ha, crop plant compatibility, in comparison to untreated controls
Excerpt: Seeds of monocotyledonous and dicotyledonous weed plants and crop plants are placed in plastic or organic planting pots and covered with soil. The compounds of the invention, formulated in the form of wettable powders (WP) or as emulsion concentrates (EC), are then applied to the surface of the covering soil as aqueous suspension or emulsion with addition of 0.5% additive at a water application rate equivalent to 600 l/ha. After the treatment, the pots are placed in a greenhouse and kept under good growth conditions for the trial plants. After about 3 weeks, the effect of the preparations is scored visually in comparison with untreated controls as percentages. For example, 100% activity=the plants have died, 0% activity=like control plants.
The observed effects on selected crop plants are reported here in comparison to the untreated controls (values in %). The appendices “a” “b” and “c” give differentiation by dosage used with otherwise the same crop plants tested.

[21] = system: Polygonum convolvulus (POLCO); experiment: Pre-emergence herbicidal action against POLCO; conditions: dosage 320 g/ha
Procedure, shortened: as §3

[22] = system: Avena fatua (AVEFA); experiment: Pre-emergence herbicidal action against AVEFA; conditions: 320 g/ha, visual scoring after about 3 weeks vs untreated controls
Procedure, shortened: as §3

[23] = system: Viola tricolor (VIOTR); experiment: Pre-emergence herbicidal action against VIOTR
Procedure, shortened: as §3

[24] = system: Setaria viridis (SETVI); experiment: Pre-emergence herbicidal action against SETVI
Procedure, shortened: as §3

[25] = system: Zea mays (ZEAMX); conditions: 20 g/ha, ZEAMX, effect in comparison to untreated controls
Procedure, shortened: as §2

[26] = system: Amaranthus retroflexus (AMARE); experiment: Pre-emergence herbicidal action against AMARE; conditions: visual scoring after about 3 weeks vs untreated controls
Procedure, shortened: as §3

[27] = system: Alopecurus myosuroides (ALOMY); experiment: Pre-emergence herbicidal action against ALOMY; conditions: scored visually after about 3 weeks, 100% = plants have died
Procedure, shortened: as §3

[28] = 80 g/ha, visual rating about 3 weeks after treatment vs untreated controls (100% = plants have died, 0% = like control plants)
[29] = 320 g/ha, visual rating about 3 weeks after treatment

Post-emergence action against ORYSA in % [13] | SMILES | Post-emergence action against MATIN in % ([1]; dosage 80 g/ha) | Post-emergence action against MATIN in % ([1]; dosage 320 g/ha) | Post-emergence action against PHBPU in % ([2]; dosage 80 g/ha) | Post-emergence action against PHBPU in % ([2]; dosage 320 g/ha) | Post-emergence action against POLCO in % ([3]; dosage 80 g/ha) | Post-emergence action against POLCO in % ([3]; dosage 320 g/ha) | Post-emergence action against ECHCG in % ([4]; dosage 80 g/ha) | Post-emergence action against ECHCG in % ([4]; dosage 320 g/ha) | Post-emergence action against VERPE in % ([5]; 320 g/ha, VERPE) | Post-emergence action against VERPE in % ([5]; dosage 80 g/ha) | Post-emergence action against VIOTR in % ([6]; 80 g/ha) | Post-emergence action against VIOTR in % ([6]; 320 g/ha) | Post-emergence action against ABUTH in % ([7]; 80 g/ha) | Post-emergence action against ABUTH in % ([7]; 320 g/ha) | Post-emergence action against SETVI in % ([8]; dosage 80 g/ha) | Post-emergence action against SETVI in % ([8]; dosage 320 g/ha) | Post-emergence action against LOLRI in % ([9]; dosage 320 g/ha) | Post-emergence action against AVEFA in % [10] | Post-emergence action against AMARE in % [11, 28] | other results
0% | CCOC(=O)[C@@H](C)Oc1nn(-c2ncccc2F)c(-c2cncc(F)c2)c1Cl [Example I-145] | 80% | 90% | 90% | 90% | 90% | 90% | 90% | 90% | 90% | 90% | 90% | 90% | 90% | 90% | 90% | 90% | 90% | 90% | 80% | Post-emergence action against LOLRI in % ([9]; dosage 80 g/ha): 90%; Post-emergence action against AMARE in % [11, 29]: 80%; Post-emergence action against DIGSA in % ([12]; 320 g/ha): 90%; Post-emergence action against TRZAS in % [14]: 20%; Post-emergence action against ALOMY in % ([15]; 80 g/ha): 80%; Post-emergence action against ALOMY in % ([15]; 320 g/ha): 90%
10% | CC(C)N(C)S(=O)(=O)NC(=O)COc1nn(-c2ncccc2F)c(-c2ccc(F)nc2)c1Br [Example I-53] |  |  |  |  |  |  | 80% |  |  | 80% |  |  |  |  | 80% |  |  |  | 90% | Pre-emergence action against ECHCG in % [16]: 80%; Pre-emergence action against LOLRI in % [17]: 100%; Pre-emergence action against MATIN in % [18]: 90%; Pre-emergence action against VERPE in % [19]: 100%; Pre-emergence action against ZEAMX in % [20]: 20%; Pre-emergence action against POLCO in % [21]: 90%; Pre-emergence action against AVEFA in % [22]: 100%; Pre-emergence action against VIOTR in % ([23]; 320 g/ha, Viola tricolor): 100%; Pre-emergence action against VIOTR in % ([23]; dosage 80 g/ha): 90%; Pre-emergence action against SETVI in % ([24]; dosage 80 g/ha): 90%; Pre-emergence action against SETVI in % ([24]; dosage 320 g/ha): 100%; Post-emergence action against ZEAMX in % (crop plant compatibility) [25]: 10%; Post-emergence action against ALOMY in % ([15]; 80 g/ha): 90%; Pre-emergence action against AMARE in % ([26]; 80 g/ha): 90%; Pre-emergence action against AMARE in % ([26]; 320 g/ha): 100%; Pre-emergence action against ALOMY ([27]; 80 g/ha): 80%; Pre-emergence action against ALOMY ([27]; 320 g/ha): 100%
0% | C[C@@H](Oc1nn(-c2ncccc2F)c(-c2cncc(F)c2)c1Cl)C(=O)O [Example I-165] | 80% | 90% | 80% | 90% | 80% | 90% | 90% | 90% | 90% | 90% | 90% | 90% | 90% | 90% | 90% | 90% | 100% | 90% |  | Post-emergence action against AMARE in % [11, 29]: 80%; Post-emergence action against DIGSA in % ([12]; 80 g/ha): 90%; Post-emergence action against DIGSA in % ([12]; 320 g/ha): 90%; Post-emergence action against TRZAS in % [14]: 20%; Post-emergence action against ALOMY in % ([15]; 320 g/ha): 100%
